Results as given in patent USRE48335E1, “Polymyxin derivatives as antimicrobial compounds” (priority 2014, dated 2020).
Converted amounts (≈) assume the structure as drawn. Like-named read-outs stand apart in the source and are kept apart here. Positions of bridges follow the written chain, without caps; N, C: chain ends. Non-standard residues stand in square brackets, D forms with d. Residues, ends and D or L forms follow the SMILES beside them. *: point of attachment. Benzoyl(4-Ph) = O=C(c1ccc(-c2ccccc2)cc1)*; Lauroyl = CCCCCCCCCCCC(=O)*; Decanoyl = CCCCCCCCCC(=O)*; Nonanoyl = CCCCCCCCC(=O)*; Heptanoyl = CCCCCCC(=O)*; Octanoyl = CCCCCCCC(=O)*; Orn = NCCC[C@H](N)C(=O)O; Dab = NCC[C@H](N)C(=O)O; Dap = NC[C@H](N)C(=O)O; PhAc = O=C(Cc1ccccc1)*

Tests used:
Acinetobacter baumannii = test system: Acinetobacter baumannii
Protocol: (§1) MICs of the lipopeptides (trifluoroacetic acid salt, TFA) were determined by broth microdilution in cation-adjusted Mueller-Hinton broth (CAMHB) (Oxoid Australia, Thebarton, SA, Australia) according to Clinical and Laboratory Standards Institute standards (Clinical and Laboratory Standards Institute. Performance standards for antimicrobial susceptibility testing; eighteenth informational supplement M100-S18. Wayne, Pa., 2008). Polymyxin B (sulphate) was employed as control. […]

Enterobacter cloacae = test system: Enterobacter cloacae
Protocol: as §1

Pseudomonas aeruginosa = test system: Pseudomonas aeruginosa
Protocol: as §1

| Compound | Minimum inhibitory concentration, Ab A ATCC 17978 (Acinetobacter baumannii) | Minimum inhibitory concentration, Ab ATCC 19606 (Acinetobacter baumannii) | Minimum inhibitory concentration, Ab FADDI-AB034 (Acinetobacter baumannii) | Minimum inhibitory concentration, Ec FADDI-EC001 (Enterobacter cloacae) | Minimum inhibitory concentration, Ec FADDI-EC003 (Enterobacter cloacae) | Minimum inhibitory concentration, Ec FADDI-EC006 (Enterobacter cloacae) | Minimum inhibitory concentration, Pa ATCC 27853 (Pseudomonas aeruginosa) | Minimum inhibitory concentration, Pa FADDI-PA022 (Pseudomonas aeruginosa) | Minimum inhibitory concentration, Pa FADDI-PA025 (Pseudomonas aeruginosa) | Minimum inhibitory concentration, Ab A ATCC 17978 (Acinetobacter baumannii; Acinetobacter baumannii ATCC 17978, broth microdilution in CAMHB) | Minimum inhibitory concentration, Ab ATCC 19606 (Acinetobacter baumannii; Acinetobacter baumannii ATCC 19606, broth microdilution in CAMHB) | Minimum inhibitory concentration, Ab FADDI-AB034 (Acinetobacter baumannii; Acinetobacter baumannii FADDI-AB034, broth microdilution in CAMHB) | Minimum inhibitory concentration, Ec FADDI-EC001 (Enterobacter cloacae; Enterobacter cloacae FADDI-EC001, broth microdilution in CAMHB) | Minimum inhibitory concentration, Ec FADDI-EC003 (Enterobacter cloacae; Enterobacter cloacae FADDI-EC003, broth microdilution in CAMHB) | Minimum inhibitory concentration, Ec FADDI-EC006 (Enterobacter cloacae; Enterobacter cloacae FADDI-EC006, broth microdilution in CAMHB) | Minimum inhibitory concentration, Pa ATCC 27853 (Pseudomonas aeruginosa; Pseudomonas aeruginosa ATCC 27853, broth microdilution in CAMHB) | Minimum inhibitory concentration, Pa FADDI-PA022 (Pseudomonas aeruginosa; Pseudomonas aeruginosa FADDI-PA022, broth microdilution in CAMHB) | Minimum inhibitory concentration, Pa FADDI-PA025 (Pseudomonas aeruginosa; Pseudomonas aeruginosa FADDI-PA025, broth microdilution in CAMHB) |
| --- | --- | --- | --- | --- | --- | --- | --- | --- | --- | --- | --- | --- | --- | --- | --- | --- | --- | --- |
| CCCCCCCCCC(=O)N[C@@H](CCN)C(=O)N[C@H](C(=O)N[C@H](CO)C(=O)N[C@H]1CCNC(=O)[C@H]([C@@H](C)O)NC(=O)[C@H](CCN)NC(=O)[C@H](CCN)NC(=O)[C@H]([C@@H](C)O)NC(=O)[C@@H](CC(C)C)NC(=O)[C@H](CCN)NC1=O)[C@@H](C)O [Compound 9] (Decanoyl-[Dab]T[dS][Dab][Dab][dL]T[Dab][Dab]T; lactam 4-C) | 1 µg/mL (≈ 0.863 µM) | 0.25 µg/mL (≈ 0.216 µM) | 0.5 µg/mL (≈ 0.432 µM) | 0.5 µg/mL (≈ 0.432 µM) | 1 µg/mL (≈ 0.863 µM) | 1 µg/mL (≈ 0.863 µM) | 4 µg/mL (≈ 3.45 µM) | 8 µg/mL (≈ 6.91 µM) | 32 µg/mL (≈ 27.6 µM) |  |  |  |  |  |  |  |  |  |
| CCCCCCCCCCCC(=O)N[C@@H](CCN)C(=O)N[C@H](C(=O)N[C@H](CO)C(=O)N[C@H]1CCNC(=O)[C@H]([C@@H](C)O)NC(=O)[C@H](CCN)NC(=O)[C@H](CCN)NC(=O)[C@H]([C@@H](C)O)NC(=O)[C@@H](CC(C)C)NC(=O)[C@H](CCN)NC1=O)[C@@H](C)O [Compound 10] (Lauroyl-[Dab]T[dS][Dab][Dab][dL]T[Dab][Dab]T; lactam 4-C) | 0.5 µg/mL (≈ 0.421 µM) | 1 µg/mL (≈ 0.843 µM) | 1 µg/mL (≈ 0.843 µM) | 1 µg/mL (≈ 0.843 µM) | 0.5 µg/mL (≈ 0.421 µM) | 1 µg/mL (≈ 0.843 µM) | 2 µg/mL (≈ 1.69 µM) | 4 µg/mL (≈ 3.37 µM) | 4 µg/mL (≈ 3.37 µM) |  |  |  |  |  |  |  |  |  |
| CC(C)C[C@H]1NC(=O)[C@H](CCN)NC(=O)[C@@H](NC(=O)[C@@H](CO)NC(=O)[C@@H](NC(=O)[C@H](CCN)NC(=O)c2ccc(-c3ccccc3)cc2)[C@@H](C)O)CCNC(=O)[C@H]([C@@H](C)O)NC(=O)[C@H](CCN)NC(=O)[C@H](CCN)NC(=O)[C@H]([C@@H](C)O)NC1=O [Compound 11] ({Benzoyl(4-Ph)}-[Dab]T[dS][Dab][Dab][dL]T[Dab][Dab]T; lactam 4-C) | 0.5 µg/mL (≈ 0.422 µM) | 2 µg/mL (≈ 1.69 µM) | 1 µg/mL (≈ 0.844 µM) | 0.5 µg/mL (≈ 0.422 µM) | 0.5 µg/mL (≈ 0.422 µM) | 0.5 µg/mL (≈ 0.422 µM) | 4 µg/mL (≈ 3.38 µM) | 4 µg/mL (≈ 3.38 µM) | 32 µg/mL (≈ 27 µM) |  |  |  |  |  |  |  |  |  |
| CC(C)C[C@H]1NC(=O)[C@H](CCN)NC(=O)[C@@H](NC(=O)[C@@H](CO)NC(=O)[C@@H](NC(=O)[C@H](CCN)NC(=O)Cc2ccccc2)[C@@H](C)O)CCNC(=O)[C@H]([C@@H](C)O)NC(=O)[C@H](CCN)NC(=O)[C@H](CCN)NC(=O)[C@H]([C@@H](C)O)NC1=O [Compound 12] (PhAc-[Dab]T[dS][Dab][Dab][dL]T[Dab][Dab]T; lactam 4-C) |  |  |  |  |  |  |  |  |  | 4 µg/mL (≈ 3.56 µM) | 4 µg/mL (≈ 3.56 µM) | 4 µg/mL (≈ 3.56 µM) | 0.25 µg/mL (≈ 0.223 µM) | 0.5 µg/mL (≈ 0.446 µM) | 1 µg/mL (≈ 0.891 µM) | >32 µg/mL | 8 µg/mL (≈ 7.13 µM) | >32 µg/mL |
| CCCCCCCC(=O)N[C@@H](CN)C(=O)N[C@H](C(=O)N[C@H](CO)C(=O)N[C@H]1CCNC(=O)[C@H]([C@@H](C)O)NC(=O)[C@H](CCN)NC(=O)[C@H](CCN)NC(=O)[C@H]([C@@H](C)O)NC(=O)[C@@H](CC(C)C)NC(=O)[C@H](CCN)NC1=O)[C@@H](C)O [Compound 13] (Octanoyl-[Dap]T[dS][Dab][Dab][dL]T[Dab][Dab]T; lactam 4-C) | 1 µg/mL (≈ 0.896 µM) | 1 µg/mL (≈ 0.896 µM) | 0.5 µg/mL (≈ 0.448 µM) | 0.25 µg/mL (≈ 0.224 µM) | 0.25 µg/mL (≈ 0.224 µM) | 0.5 µg/mL (≈ 0.448 µM) | 4 µg/mL (≈ 3.58 µM) | 4 µg/mL (≈ 3.58 µM) | >32 µg/mL |  |  |  |  |  |  |  |  |  |
| CCCCCCCC(=O)N[C@@H](CCCN)C(=O)N[C@H](C(=O)N[C@H](CO)C(=O)N[C@H]1CCNC(=O)[C@H]([C@@H](C)O)NC(=O)[C@H](CCN)NC(=O)[C@H](CCN)NC(=O)[C@H]([C@@H](C)O)NC(=O)[C@@H](CC(C)C)NC(=O)[C@H](CCN)NC1=O)[C@@H](C)O [Compound 14] (Octanoyl-[Orn]T[dS][Dab][Dab][dL]T[Dab][Dab]T; lactam 4-C) | 8 µg/mL (≈ 6.99 µM) | 16 µg/mL (≈ 14 µM) | 4 µg/mL (≈ 3.5 µM) | 0.25 µg/mL (≈ 0.218 µM) | 0.5 µg/mL (≈ 0.437 µM) | 4 µg/mL (≈ 3.5 µM) | >32 µg/mL | 8 µg/mL (≈ 6.99 µM) | >32 µg/mL |  |  |  |  |  |  |  |  |  |
| CCCCCCCC(=O)N[C@@H](CCN)C(=O)N[C@H](C(=O)N[C@@H](C(=O)N[C@H]1CCNC(=O)[C@H]([C@@H](C)O)NC(=O)[C@H](CCN)NC(=O)[C@H](CCN)NC(=O)[C@H]([C@@H](C)O)NC(=O)[C@@H](CC(C)C)NC(=O)[C@H](CCN)NC1=O)[C@H](C)O)[C@@H](C)O [Compound 15] (Octanoyl-[Dab]T[dT][Dab][Dab][dL]T[Dab][Dab]T; lactam 4-C) | 0.5 µg/mL (≈ 0.437 µM) | 2 µg/mL (≈ 1.75 µM) | 1 µg/mL (≈ 0.874 µM) | 1 µg/mL (≈ 0.874 µM) | 2 µg/mL (≈ 1.75 µM) | 1 µg/mL (≈ 0.874 µM) | 16 µg/mL (≈ 14 µM) | 16 µg/mL (≈ 14 µM) | >32 µg/mL |  |  |  |  |  |  |  |  |  |
| CCCCCCC(=O)N[C@@H](CCN)C(=O)N[C@H](C(=O)N[C@H](CO)C(=O)N[C@H]1CCNC(=O)[C@H]([C@@H](C)O)NC(=O)[C@H](CCN)NC(=O)[C@H](CCN)NC(=O)[C@H]([C@@H](C)O)NC(=O)[C@@H](CC(C)C)NC(=O)[C@H](CCN)NC1=O)[C@@H](C)O [Compound 16] (Heptanoyl-[Dab]T[dS][Dab][Dab][dL]T[Dab][Dab]T; lactam 4-C) | 0.5 µg/mL (≈ 0.448 µM) | 2 µg/mL (≈ 1.79 µM) | 2 µg/mL (≈ 1.79 µM) | 0.5 µg/mL (≈ 0.448 µM) | 0.25 µg/mL (≈ 0.224 µM) | 0.25 µg/mL (≈ 0.224 µM) | 4 µg/mL (≈ 3.58 µM) | 4 µg/mL (≈ 3.58 µM) | >32 µg/mL |  |  |  |  |  |  |  |  |  |
| CCCCCCCCC(=O)N[C@@H](CCN)C(=O)N[C@H](C(=O)N[C@H](CO)C(=O)N[C@H]1CCNC(=O)[C@H]([C@@H](C)O)NC(=O)[C@H](CCN)NC(=O)[C@H](CCN)NC(=O)[C@H]([C@@H](C)O)NC(=O)[C@@H](CC(C)C)NC(=O)[C@H](CCN)NC1=O)[C@@H](C)O [Compound 17] (Nonanoyl-[Dab]T[dS][Dab][Dab][dL]T[Dab][Dab]T; lactam 4-C) | <0.125 µg/mL | <0.125 µg/mL | 0.25 µg/mL (≈ 0.218 µM) | 0.25 µg/mL (≈ 0.218 µM) | 0.25 µg/mL (≈ 0.218 µM) | 0.5 µg/mL (≈ 0.437 µM) | 2 µg/mL (≈ 1.75 µM) | 4 µg/mL (≈ 3.5 µM) | 16 µg/mL (≈ 14 µM) |  |  |  |  |  |  |  |  |  |
